Data set [1] can be described thus: In vivo PK after single p.o. and i.v. dosing in CD-1 mice. Set-up: species or system female CD-1 mice. The following applies: CD-1 mice; for CL / Vss / t1/2 (i.v.): i.v. 5 mg/kg; for F (oral bioavailability): oral 25 mg/kg vs i.v. 5 mg/kg; for AUC0–24 / Tmax / t1/2 (oral) / Cmax: single oral dose 25 mg/kg; for Cmax: plasma. The protocol: The Institutional Animal Care and Use Committee (IACUC) of the Novartis Institute for Tropical Diseases (NITD), registered with the Agri-Food and Veterinary authority (AVA), Government of Singapore, reviewed and approved all animal experimental protocols. […] The mice were allowed to acclimate before the initiation of the experiments. Feed and water were given ad libitum. […] The blood samples from the mice were collected at 0.02 (for i.v. only), 0.08, 0.25, 0.5, 1, 2, 4, 8, 16, and 24 h postdosing. The dose proportionality studies were conducted with KAE609. […] Additional samples were collected at 32 h and 48 h postdose for the 1- and 5-mg/kg dose groups and up to 72 h postdose for the 100-mg/kg dose group. Groups of three mice were used for each time point. Blood was centrifuged at 13,000 rpm for 7 min at 4°C, and plasma was harvested and stored at -20°C until analysis. […] After vortexing and centrifuging the mixture, the supernatant was removed and 5 μl of sample analyzed. Analyte quantitation was performed by high-performance liquid chromatography coupled with tandem mass spectrometry (LC-MS/MS). […] Instrument control and data acquisition were performed using the Applied Biosystems software Analyst 1.4.2. […] Multiple-reaction monitoring (MRM) was combined with optimized MS parameters to maximize detection specificity and sensitivity. The most intense MRM transitions [338.3/295.1 for (+)-1, 370.1/327.0 for (+)-2, 370.0/326.9 for (+)-3, 354.1/310.8 for (+)-4, 354.1/311.2 for (+)-5, 372.1/329.1 for (+)-6, 388.0/331.8 for (+)-7, 372.1/316.1 for (-)-6, and 388/332 for (-)-7] were used for quantitation. Most compounds were analyzed using electrospray ionization in the negative mode, except (+)-1, which was analyzed using positive mode. The recovery of the compounds from plasma was good and consistent across the concentration range studied. The lower limits of quantification for different compounds ranged from 1.3 to 70 ng/ml in plasma. A calibration curve was freshly prepared and analyzed with every set of study samples. Intraday variability was established with triplicate quality control samples at three concentration levels. The results were accepted if relative standard deviation was <15%. The mean values of the compound concentrations in plasma were obtained from three animals at each time point and plotted against time to generate concentration-time profiles. […] The oral bioavailability (F) was calculated as the ratio between the area under the concentration-time curve from 0 to infinity (AUC0-∞) following oral administration and the AUC0-∞ following intravenous administration corrected for dose (F = […].).

A short description of data set [2]: HT-equilibrium solubility. It is filed as physicochemical. The following applies: pH 6.8, HT-equilibrium solubility. An excerpt:
page 5: Running title: PreclinicalPK -PD of antimalarials 73 to high through put form at using in- house standard assa y protocols that are described in the 74 literature. […] 81 82 83 84 85 86 87 88 89 90 91 92 93 94 95 96 97 98 5

The nature of data set [3]: Parallel artificial membrane permeability assay (PAMPA). It is filed as in vitro ADME. The following applies: % fraction absorbed. An excerpt:
page 5: Running title: PreclinicalPK -PD of antimalarials 73 to high through put form at using in- house standard assa y protocols that are described in the 74 literature. 75 (a)HT-Equilibrium solubilit y at pH 6.8( 1); (b)Parallel Artificial Membrane P ermeability Assa y 76 expressed in % fraction absorbed (FA) ( 2,3 ); (c)Apparent permeability from apical to […] 78 tested; (d)intrinsic clearance in mouse liver micro somes ex pressed as µ L/ min/mg protein, in 79 the presen ce of liver enzym es ( 6); (e)Mous e plasm a protein binding using rapid equilibrium […] 81 82 83 84 85 86 87 88 89 90 91 92 93 94 95 96 97 98 5
Background: In PAMPA a lipid-coated filter parts donor from acceptor wells.

Converted amounts (≈) assume the structure as drawn.

Regarding `C[C@H]1Cc2c([nH]c3ccc(Cl)cc23)[C@@]2(N1)C(=O)Nc1ccc(Cl)cc12` [(+)-2], in data set [1], the CL amounted to 92.6 mL/min/kg, the Vss turned out to be 9.9 L/kg, the “t1/2 (i.v.)” value came to 4.6 h and the “F (oral bioavailability)” value is recorded as 62%. In addition, in data set [1], the “AUC0–24” value was 2900 ng·h/mL; the Tmax (commonly the time from dosing to the highest level) was found to be 1 h; the “t1/2 (oral)” value is reported as 4.3 h; the Cmax (as a rule, the peak of the concentration-time curve) turned out to be 600 ng/mL. In addition, the Solubility (usually the concentration that dissolves in the medium under given conditions) in data set [2] was 22 µM (≈ 8.19 µg/mL).
For the molecule `C[C@H]1Cc2c([nH]c3cc(Cl)ccc23)[C@@]2(N1)C(=O)Nc1ccc(Cl)cc12` [(+)-3], in data set [1], the CL is 60.1 mL/min/kg, the Vss was 13.7 L/kg, the “t1/2 (i.v.)” value amounted to 4.3 h and the “F (oral bioavailability)” value is 91%. In data set [1], the “AUC0–24” value amounted to 5800 ng·h/mL, the time of peak concentration (Tmax) was found to be 2 h, the “t1/2 (oral)” value is 6.2 h and the Cmax came out at 700 ng/mL. Besides, the Solubility in data set [2] worked out at 8 µM (≈ 2.98 µg/mL).
Regarding `C[C@H]1Cc2c([nH]c3ccc(F)cc23)[C@@]2(N1)C(=O)Nc1ccc(Cl)cc12` [(+)-4], in data set [1], the CL amounted to 24.0 mL/min/kg, the Vss came out at 1.9 L/kg, the “t1/2 (i.v.)” value is 4.7 h and the “F (oral bioavailability)” value is recorded as 26%. Further, in data set [1], the “AUC0–24” value stood at 3900 ng·h/mL, the Tmax amounted to 0.25 h, the “t1/2 (oral)” value is reported as 5.6 h and the Cmax was 1000 ng/mL. The molecule further registered a Solubility in data set [2] of 137 µM (≈ 48.7 µg/mL). Further, in data set [3], the “PAMPA %FA” value was 97%.
As to `C[C@H]1Cc2c([nH]c3cc(F)ccc23)[C@@]2(N1)C(=O)Nc1ccc(Cl)cc12` [(+)-5], in data set [1], the CL is 11.8 mL/min/kg, the Vss turned out to be 1.6 L/kg, the “t1/2 (i.v.)” value stood at 3.8 h and the “F (oral bioavailability)” value is given as 47%. Besides, in data set [1], the “AUC0–24” value was found to be 17700 ng·h/mL, the Tmax stood at 0.25 h, the “t1/2 (oral)” value is on record as 4.0 h and the Cmax is 3100 ng/mL. In data set [2], this molecule yielded a Solubility of 131 µM (≈ 46.6 µg/mL).
For the molecule `C[C@H]1Cc2c([nH]c3cc(F)c(F)cc23)[C@@]2(N1)C(=O)Nc1ccc(Cl)cc12` [(+)-6], in data set [1], the CL is 8.5 mL/min/kg, the Vss was 1.6 L/kg, the “t1/2 (i.v.)” value was found to be 2.9 h and the “F (oral bioavailability)” value turned out to be 53%. Moreover, in data set [1], the “AUC0–24” value was 26800 ng·h/mL, the Tmax is reported as 2 h, the “t1/2 (oral)” value is 3.2 h and the Cmax worked out at 3100 ng/mL. The Solubility in data set [2] was determined as 169 µM (≈ 63.2 µg/mL).
Regarding `C[C@@H]1Cc2c([nH]c3cc(F)c(F)cc23)[C@]2(N1)C(=O)Nc1ccc(Cl)cc12` [(−)-6], in data set [1], the CL worked out at 4.2 mL/min/kg, the Vss is 2.8 L/kg, the “t1/2 (i.v.)” value is on record as 13.2 h and the “F (oral bioavailability)” value was determined as 78%. In data set [1], the “AUC0–24” value amounted to 68200 ng·h/mL, the Tmax turned out to be 2 h, the “t1/2 (oral)” value was 7.9 h and the highest concentration (Cmax) was determined as 5000 ng/mL. In data set [2], this molecule gave a Solubility of 112 µM (≈ 41.9 µg/mL). Moreover, in data set [3], the “PAMPA %FA” value turned out to be 97%.
Consider `C[C@@H]1Cc2c([nH]c3cc(Cl)c(F)cc23)[C@]2(N1)C(=O)Nc1ccc(Cl)cc12` [(−)-7], for which, in data set [1], the CL is 2.6 mL/min/kg, the Vss turned out to be 1.3 L/kg, the “t1/2 (i.v.)” value came to 5.6 h and the “F (oral bioavailability)” value is given as 92%. In data set [1], the “AUC0–24” value came out at 107300 ng·h/mL, the Tmax amounted to 1 h, the “t1/2 (oral)” value turned out to be 9.1 h and the Cmax is 8300 ng/mL. Moreover, in data set [2], the Solubility amounted to 35 µM (≈ 13.7 µg/mL).

Values taken from PMC4335872, “Pharmacokinetic-Pharmacodynamic Analysis of Spiroindolone Analogs and KAE609 in a Murine Malaria Model” (Antimicrobial Agents and Chemotherapy, 2015).
